Results on 39 compounds are retold here after patent US9487513B2, “Substituted pyrazolo[1,5-A]pyridines, their preparation and use as medicaments” (LABORATORIOS DEL DR. ESTEVE S.A., priority 2012, dated 2016).

Structures can show the parent of a compound that is named as a salt.

This assay deals with T1, σ1-receptor (Cavia porcellus, UniProt Q60492).
T1 construct: Guinea pig brains were homogenized in 10 vols; (w/v) of Tris-HCl 50 mM 0.32 M sucrose; from tissue; host or cells: guinea pig brain membranes
T1 sequence (Q60492 whole entry): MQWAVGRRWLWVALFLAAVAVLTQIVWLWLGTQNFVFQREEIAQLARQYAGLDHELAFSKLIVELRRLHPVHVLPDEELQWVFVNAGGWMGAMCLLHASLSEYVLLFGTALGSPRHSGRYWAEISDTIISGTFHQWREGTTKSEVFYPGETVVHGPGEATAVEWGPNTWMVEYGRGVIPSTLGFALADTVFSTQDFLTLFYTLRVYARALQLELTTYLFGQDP
As to the kind of experiment: σ1-receptor binding assay, [3H]-(+)-pentazocine, guinea pig brain membranes. The conditions noted are these: radioligand [3H]-(+)-pentazocine at 5.0 nM; guinea pig brain membrane; 150 min at 37° C.; nonspecific binding with 1 μM haloperidol. As to the method: Brain membrane preparation and binding assays for the σ1-receptor were performed as described (DeHaven-Hudkins, D. L., L. C. Fleissner, and F. Y. Ford-Rice, 1992, Characterization of the binding of [^3H](+)pentazocine to σ recognition sites in guinea pig brain, Eur. J. Pharmacol. 227, 371-378) with some modifications. Guinea pig brains were homogenized in 10 vols. (w/v) of Tris-HCl 50 mM 0.32 M sucrose, pH 7.4, with a Kinematica Polytron PT 3000 at 15000 r.p.m. for 30 s. The homogenate was centrifuged at 1000 g for 10 min at 4° C. and the supernatants collected and centrifuged again at 48000 g for 15 min at 4° C. The pellet was resuspended in 10 volumes of Tris-HCl buffer (50 mM, pH 7.4), incubated at 37° C. for 30 min, and centrifuged at 48000 g for 20 min at 4° C. Following this, the pellet was re-suspended in fresh Tris-HCl buffer (50 mM, pH 7.4) and stored on ice until use.
The radioligand used was [^3H]-(+)-pentazocine at 5.0 nM and the final volume was 200 μl. The incubation was initiated with the addition of 100 μl of membrane at a final tissue concentration of approximately 5 mg tissue net weight/mL and the incubation time was 150 m. at 37° C. After incubation, the membranes were collected onto pretreated glass fiber filterplate (MultiScreen-FC, Millipore), with polyethylenimine 0.1%. The filters were washed two times with 200 μl of washing buffer (50 mM Tris Cl, pH=7.4) and then 25 μl of Ecoscint H liquid scintillation cocktail were added. Microplates were allowed to set for several hours and then quantified by liquid scintillation spectrophotometry (1450 Microbeta, Wallac). Nonspecific binding was determined with 1 μM haloperidol.
The Ki is the equilibrium dissociation constant of an inhibitor or competing ligand from its target. The compound `CC(C)(C)C1CCN(CCCCOCc2cc3ccccn3n2)CC1` [Example 1, 2-((4-(4-tert-butylpiperidin-1-yl)butoxy)methyl)pyrazolo[1,5-a]pyridine maleate] came in with a Ki of 16.3 nM.
The figure for `c1ccn2nc(COCCN3CCCCCC3)cc2c1` [Example 2, 2-((2-(azepan-1-yl)ethoxy)methyl)pyrazolo[1,5-a]pyridine maleate] is 37.6 nM; for `CCCN(CCCCOCc1cc2ccccn2n1)CC1CC1` [Example 3, N-(cyclopropylmethyl)-N-propyl-4-(pyrazolo[1,5-a]pyridin-2-ylmethylpyrazolo[1,5-a]pyridin-2-ylmethoxy)butan-1-amine maleate] it is 90.1 nM; for `c1ccc2c(c1)CCN(CCCCOCc1cc3ccccn3n1)C2` [Example 4, maleate] it is 48 nM.
Consider `c1ccn2nc(COCCCCNC34CC5CC(CC(C5)C3)C4)cc2c1` [Example 5, N-adamantyl-4-(pyrazolo[1,5-a]pyridin-2-ylmethylpyrazolo[1,5-a]pyridin-2-ylmethoxy)butan-1-amine maleate], for which the Ki turned out to be 42.3 nM.
`c1ccc2c(c1)COC21CCN(CCCCOCc2cc3ccccn3n2)CC1` [Example 6, 1′-(4-(pyrazolo[l,5-a]pyridin-2-ylmethylpyrazolo[1,5-a]pyridin-2-ylmethoxy)butyl)-3H-spiro[isobenzofuran-1,4′-piperidine] maleate] yielded a Ki of 23.3 nM.
`c1ccn2nc(COCCCCN3CCCCCC3)cc2c1` [Example 8, 2-((4-(azepan-1-yl)butoxy)methyl)pyrazolo[1,5-a]pyridine maleate] yielded an inhibitory constant (Ki) of 22.2 nM.
Compound `c1ccn2nc(COCCCCN3CCN(C4CCCCC4)CC3)cc2c1` [Example 10, 2-((4-(4-cyclohexylpiperazin-1-yl)butoxy)methyl)pyrazolo[1,5-a]pyridine maleate] returned a Ki of 75.4 nM.
Then `CN(CCCCOc1cc2ccccn2n1)C1CCN(Cc2ccccc2)CC1` [Example 12, 1-benzyl-N-methyl-N-(4-(pyrazolo[1,5-a]pyridin-2-yloxy)butyl)piperidin-4-amine difumarate], with 19.5 nM; and `c1ccn2nc(OCCCCN3CCOCC3)cc2c1` [Example 17, 4-(4-(pyrazolo[1,5-a]pyridin-2-yloxy)butyl)morpholine oxalate], with 118 nM.
The compound `c1ccn2nc(OCCCCN3CCCCC3)cc2c1` [Example 18, 2-(4-(piperidin-1-yl)butoxy)pyrazolo[1,5-a]pyridine oxalate] yielded an inhibition constant (Ki) of 14.7 nM.
Compound `CCN(CC)CCCCOc1cc2ccccn2n1` [Example 19, N,N-diethyl-4-(pyrazolo[1,5-a]pyridin-2-yloxy)butan-1-amine oxalate] yielded a Ki of 74.9 nM.
With `c1ccn2nc(OCCCCN3CCCC3)cc2c1` [Example 20, 2-(4-(pyrrolidin-1-yl)butoxy)pyrazolo[1,5-a]pyridine oxalate], the Ki worked out at 50.7 nM.
The figure for `c1ccc(C2CCN(CCCCOc3cc4ccccn4n3)CC2)cc1` [Example 21, 2-(4-(4-phenylpiperidin-1-yl)butoxy)pyrazolo[1,5-a]pyridine oxalate] is 3.8 nM.
As to `CN(CCCCOc1cc2ccccn2n1)Cc1ccccc1` [Example 22, N-benzyl-N-methyl-4-(pyrazolo[1,5-a]pyridin-2-yloxy)butan-1-amine oxalate], the Ki worked out at 3.6 nM.
`c1ccc(OC2CCN(CCCCOc3cc4ccccn4n3)CC2)cc1` [Example 23, 2,(4-(4-phenoxypiperidin-1-yl)butoxy)pyrazolo[1,5-a]pyridine oxalate]: the Ki stood at 30.1 nM.
In the case of `CN(CCOc1cc2ccccn2n1)Cc1ccccc1` [Example 24, N-benzyl-N-methyl-2-(pyrazolo[1,5-a]pyridin-2-yloxy)ethanamine oxalate], the affinity, expressed as Ki, was 4.5 nM.
Compound `c1ccc(N2CCN(CCCCOc3cc4ccccn4n3)CC2)cc1` [Example 25, 2-(4-(4-phenylpiperazin-1-yl)butoxy)pyrazolo[1,5-a]pyridine oxalate] showed a Ki of 19.6 nM.
For the compound `c1ccc2cc(C3CCN(CCCCOc4cc5ccccn5n4)CC3)ccc2c1` [Example 26, 2-(4-(4-(naphthalen-2-yl)piperidin-1-yl)butoxy)pyrazolo[1,5-a]pyridine], the affinity corresponds to a Ki of 11 nM.
Compound `c1ccc2c(c1)COC21CCN(CCCCOc2cc3ccccn3n2)CC1` [Example 27, 1′-(4-(pyrazolo[1,5-a]pyridin-2-yloxy)butyl)-3H-spiro[isobenzofuran-1,4′-piperidine] oxalate] came in with a Ki of 9.1 nM.
`c1ccn2nc(OCCCCN3CCN(C4CCCCC4)CC3)cc2c1` [Example 28, 2-(4-(4-cyclohexylpiperazin-1-yl)butoxy)pyrazolo[1,5-a]pyridine] came in with a Ki of 19.9 nM.
In the case of `c1ccn2nc(OCCCCN3CCN(C4CCCCC4)CC3)cc2c1` [Example 29, 2-(4-(4-cyclohexylpiperazin-1-yl)butoxy)pyrazolo[1,5-a]pyridine dimaleate], the affinity corresponds to a Ki of 11.3 nM.
For `CC(C)(C)C1CCN(CCCCOc2cc3ccccn3n2)CC1` [Example 30, 2-(4-(4-tert-butylpiperidin-1-yl)butoxy)pyrazolo[1,5-a]pyridine hydrochloride], the affinity corresponds to a Ki of 6.2 nM.
For the compound `CN(CCCCOc1cc2ccccn2n1)CCc1ccccc1` [Example 31, N-methyl-N-phenethyl-4-(pyrazolo[1,5-a]pyridin-2-yloxy)butan-1-amine hydrochloride], the Ki came out at 21 nM.
Consider `CN(CCCCOc1cc2ccccn2n1)Cc1ccncc1` [Example 32, N-methyl-4-(pyrazolo[1,5-a]pyridin-2-yloxy)-N-(pyridin-4-ylmethyl)butan-1-amine dihydrochloride], for which the Ki is 14.5 nM.
On to `c1ccn2nc(OCCCCN3CCC4CCCCC4C3)cc2c1` (stereo not drawn) [Example 34, 2-(4-(pyrazolo[1,5-a]pyridin-2-yloxy)butyl)decahydroisoquinoline fumarate], for which the affinity corresponds to a Ki of 5.7 nM.
As to `CCCN(CCCCOc1cc2ccccn2n1)CC1CC1` [Example 35, N-(cyclopropylmethyl)-N-propyl-4-(pyrazolo[1,5-a]pyridin-2-yloxy)butan-1-amine maleate], the Ki worked out at 10.6 nM.
With `c1ccc2c(c1)CCN(CCCCOc1cc3ccccn3n1)C2` [Example 36, 2-(4-(pyrazolo[1,5-a]pyridin-2-yloxy)butyl)-1,2,3,4-tetrahydroisoquinoline maleate], the affinity corresponds to a Ki of 20 nM.
In turn, `c1ccn2nc(OCCCCNC34CC5CC(CC(C5)C3)C4)cc2c1` [Example 37, N-adamantyl-4-(pyrazolo[1,5-a]pyridin-2-yloxy)-butan-1-amine maleate] had an inhibition constant (Ki) of 14.2 nM.
The figure for `CC(C)(C)C1CCN(CCOc2cc3ccccn3n2)CC1` [Example 39, 2-(2-(4-tert-butylpiperidin-1-yl)ethoxy)pyrazolo[1,5-a]pyridine maleate] is 6.35 nM.
As to `CN(CCOc1cc2ccccn2n1)CCc1ccccc1` [Example 40, N-methyl-N-phenethyl-2-(pyrazolo[1,5-a]pyridin-2-yloxy)ethanamine maleate], the Ki worked out at 41.1 nM.
`CN(CCOc1cc2ccccn2n1)C1CCN(Cc2ccccc2)CC1` [Example 41, 1-benzyl-N-methyl-N-(2-(pyrazolo[1,5-a]pyridin-2-yloxy)ethyl)piperidin-4-amine dimaleate] had a Ki of 14.7 nM.
`c1ccn2nc(OCCN3CCC4CCCCC4C3)cc2c1` (stereo not drawn) [Example 42, 2-(2-(pyrazolo[1,5-a]pyridin-2-yloxy)ethyl)decahydroisoquinoline maleate] came in with an inhibitory constant (Ki) of 3.6 nM.
In turn, `CCCN(CCOc1cc2ccccn2n1)CC1CC1` [Example 43, N-(cyclopropylmethyl)-N-(2-(pyrazolo[1,5-a]pyridin-2-yloxy)ethyl)propan-1-amine maleate] yielded a Ki of 28.1 nM.
The compound `c1ccn2nc(OCCN3CCN(C4CCCCC4)CC3)cc2c1` [Example 47, 2-(2-(4-cyclohexylpiperazin-1-yl)ethoxy)pyrazolo[1,5-a]pyridine dimaleate] registered a Ki of 14.1 nM.
Compound `c1ccc2c(c1)COC21CCN(CCOc2cc3ccccn3n2)CC1` [Example 48, 1′-(2-(pyrazolo[1,5-a]pyridin-2-yloxy)ethyl)-3H-spiro[isobenzofuran-1,4′-piperidine] dimaleate] came in with a Ki of 15.8 nM.
Then `c1ccn2nc(OCCCCN3CCCCCC3)cc2c1` [Example 49, 2-(4-(azepan-1-yl)butoxy)pyrazolo[1,5-a]pyridine maleate], with 7 nM; and `c1ccn2nc(OCCCCNC3CCCCC3)cc2c1` [Example 50, N-(4-(pyrazolo[1,5-a]pyridin-2-yloxy)butyl)cyclohexanamine maleate], with 9.7 nM; and `c1ccn2nc(OCCCCN3CC[C@H]4CCCC[C@@H]4C3)cc2c1` [Example 51, (4aR,8aS)-2-(4-(pyrazolo[1,5-a]pyridin-2-yloxy)butyl)decahydroisoquinoline maleate], with 8.3 nM.
